Results reported in ChEMBL document CHEMBL4007478, “Diarylpentadienone derivatives (curcumin analogues): Synthesis and anti-inflammatory activity” (Bioorg Med Chem Lett, 2017).
≈ marks a conversion by molar mass, not a printed value. Blank lines part the entries; values can stand above or below the compound they belong to. Calls of active or inactive are those of the source. No cut-off for these calls is given here.

Assays:
RAW264.7 [1] = assay: Anti-inflammatory activity in mouse RAW264.7 cells assessed as inhibition of LPS-induced TNFalpha production at 20 uM by ELISA; assay type: functional
[2] = Aqueous solubility of the compound in water at 1 mg exposed to ultrasound for 1 hr measured after 30 mins by UV-spectrophotometric method; assay type: physicochemical; conditions: for solubility at 1 h: water
RAW264.7 [3] = assay: Anti-inflammatory activity in mouse RAW264.7 cells assessed as inhibition of LPS-induced IL-6 production at 20 uM by ELISA; assay type: functional
[4] = biological target: Transcription factor p65 (Mus musculus) (UniProt Q04207); assay: Inhibition of LPS-induced NF-kB p65 activation in mouse RAW264.7 cells at 0.3 ug/ml preincubated for 12 hrs followed by LPS stimulation for 3 hrs by DAPI staining based inverted fluorescence microscopic method; assay type: cell-based
[5] = biological target: Transcription factor p65 (Mus musculus) (UniProt Q04207); assay: Inhibition of NF-kB p65 in mouse RAW264.7 cells assessed as reduction in LPS-induced iNOS expression at 0.3 ug/ml preincubated for 12 hrs followed by LPS stimulation for 3 hrs by Western blot method; assay type: cell-based
[6] = biological target: Transcription factor p65 (Mus musculus) (UniProt Q04207); assay: Inhibition of LPS-induced NF-kB p65 phosphorylation in mouse RAW264.7 cells at 0.3 ug/ml preincubated for 12 hrs followed by LPS stimulation for 3 hrs by Western blot method; assay type: cell-based
[7] = biological target: Transcription factor p65 (Mus musculus) (UniProt Q04207); assay: Inhibition of NF-kB p65 in mouse RAW264.7 cells assessed as reduction in LPS-induced COX2 expression at 0.3 ug/ml preincubated for 12 hrs followed by LPS stimulation for 3 hrs by Western blot method; assay type: cell-based

Sequence of Transcription factor p65 (Mus musculus) (Q04207 whole entry): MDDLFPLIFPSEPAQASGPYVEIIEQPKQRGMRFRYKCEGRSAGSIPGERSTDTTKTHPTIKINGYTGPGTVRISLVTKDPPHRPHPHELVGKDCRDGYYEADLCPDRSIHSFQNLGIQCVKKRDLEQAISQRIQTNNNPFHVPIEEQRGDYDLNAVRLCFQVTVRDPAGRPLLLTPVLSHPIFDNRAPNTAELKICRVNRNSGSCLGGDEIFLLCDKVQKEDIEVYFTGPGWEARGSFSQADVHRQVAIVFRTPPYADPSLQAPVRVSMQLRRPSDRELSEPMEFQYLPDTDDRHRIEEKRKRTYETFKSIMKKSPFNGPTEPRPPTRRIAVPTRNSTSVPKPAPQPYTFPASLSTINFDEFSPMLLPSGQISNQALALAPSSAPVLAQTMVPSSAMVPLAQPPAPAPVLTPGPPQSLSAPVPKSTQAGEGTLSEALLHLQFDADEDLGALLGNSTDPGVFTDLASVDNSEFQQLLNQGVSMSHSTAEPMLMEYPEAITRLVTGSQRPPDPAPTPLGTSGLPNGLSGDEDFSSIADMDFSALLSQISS

Structure (SMILES): COc1cc(C(=O)/C=C/C=C/c2ccccc2)cc(OC)c1OC
inhibition (RAW264.7 [1]): Active
solubility at 1 h [2]: 20.3 µg/mL (≈ 62.7 µM)
inhibition (RAW264.7 [3]): Active

Structure (SMILES): COc1cc(/C=C/C(=O)CC(=O)/C=C/c2ccc(O)c(OC)c2)ccc1O [CURCUMIN]
inhibition (RAW264.7 [1]): Active
solubility ([2]; 1 h): 12.87 µg/mL (≈ 34.9 µM)
inhibition (RAW264.7 [3]): Active

Structure (SMILES): COc1ccccc1/C=C/C=C/C(=O)c1ccc([N+](=O)[O-])cc1
solubility at 1 h [2]: 13.9 µg/mL (≈ 45.1 µM)

Structure (SMILES): Cc1ccc(S(=O)(=O)/C=C/C#N)cc1
inhibition [4]: Active
inhibition [5]: Active
inhibition [6]: Active
inhibition [7]: Active

Structure (SMILES): COc1ccccc1/C=C/C=C/C(=O)c1cc(OC)c(OC)c(OC)c1
inhibition (RAW264.7 [1]): Active
solubility at 1 h [2]: 25.9 µg/mL (≈ 73.1 µM)
inhibition (RAW264.7 [3]): Active

More lines, now with the values ahead:

solubility at 1 h [2]: 13.2 µg/mL (≈ 47.3 µM)
Structure (SMILES): O=C(/C=C/C=C/c1ccccc1)c1ccc([N+](=O)[O-])cc1

solubility at 1 h [2]: 7.86 µg/mL (≈ 29.1 µM)
Structure (SMILES): O=C(/C=C/C=C/c1ccccc1)c1ccc(F)cc1F

solubility at 1 h [2]: 9.45 µg/mL (≈ 31.6 µM)
Structure (SMILES): COc1ccccc1/C=C/C=C/C(=O)c1ccccc1Cl

solubility at 1 h [2]: 7.55 µg/mL (≈ 24.2 µM)
Structure (SMILES): CN(C)c1ccc(/C=C/C=C/C(=O)c2ccccc2Cl)cc1

solubility at 1 h [2]: 6.78 µg/mL (≈ 24.5 µM)
Structure (SMILES): CC(C)c1ccc(C(=O)/C=C/C=C/c2ccccc2)cc1

solubility at 1 h [2]: 8.2 µg/mL (≈ 30.5 µM)
Structure (SMILES): O=C(/C=C/C=C/c1ccccc1)c1ccccc1Cl
